Laboratory results taken from ChEMBL document CHEMBL5120804, “Total Syntheses and Anti-inflammatory Evaluations of Pongamosides A-C, Natural Furanoflavonoid Glucosides from Fruit of Pongamia pinnata (L.) Pierre” (J Nat Prod, 2022).
Activity calls are given as the source filed them. No cut-off for these calls is given here.

Legend:
RAW264.7 [1] = assay: Antiinflammatory activity in mouse RAW264.7 assessed as inhibition of LPS-induced NO production at 25 uM pretreated for 2 hrs followed by LPS addition and measured after 24 hrs; type: functional, cell-based; conditions: time 26.0 hrs
RAW264.7 [2] = assay: Antiinflammatory activity in mouse RAW264.7 assessed as inhibition of LPS-induced NO production pretreated for 2 hrs followed by LPS addition and measured after 24 hrs; type: functional, cell-based

IC50 (RAW264.7 [2]) [µM] | Structure (SMILES) | Activity (RAW264.7 [1])
27.3 | O=c1cc(-c2cccc(O)c2)oc2c1ccc1occc12 | Active
– | COc1c(-c2ccccc2)oc2c(cc(O[C@@H]3O[C@H](CO)[C@@H](O)[C@H](O)[C@H]3O)c3occc32)c1=O | Active
22.2 | COc1c(-c2ccccc2)oc2c(cc(O)c3occc32)c1=O | Active
– | COc1cc2c(=O)cc(-c3cccc(O)c3)oc2c2ccoc12 | Active
